Marks after values point to notes of the source that are not given here.
System: human keratinocytes
Assay: Mitochondrial fragmentation in keratinocytes - UV study (TPEF imaging of NADH, Fourier PSD analysis)
Type: cell-based
Conditions: B3 10 mM, SAMe 500 uM; for Effect on mitochondrial fragmentation in Non UV-exposed keratinocytes (in words) / Effect on UV-induced mitochondrial fragmentation (in words): significance P </= 0.05; for Mitochondrial Fragmentation, (+) UV (4 days) / Mitochondrial Fragmentation, (−) UV (3 days): human keratinocytes, higher value = less protection; for Mitochondrial Fragmentation, (+) UV (4 days): 4 days of daily UV exposure (4 J/cm^2 UVA+UVB, 14 min); for Mitochondrial Fragmentation, (−) UV (3 days): not UV-exposed, 3 days of treatment; for Effect on UV-induced mitochondrial fragmentation (in words): keratinocytes, UV exposure for 4 days
Protocol: Test compounds (B3 and SAMe) were purchased from Sigma (St. Loius, MO). Cell culture growth media (Epilife media with calcium (Cat#MEPI500CA) and Epilife media supplement HKGS 100X (Cat#S-001-5)) was purchased from Thermofisher (Waltham, Mass.). Cryopreserved human keratinocytes cells (˜1×10^6 cells) were plated on 12-well glass bottom plates at a confluence of ˜15%. The cells were suspended in primary keratinocyte growth media (Epilife media with calcium) and incubated @ 37° C. for 1d (Day 0). At Day 1, cells began treatment with supplemented primary keratinocyte growth media (Epilife media with calcium supplemented with HKGS 100X; […]) without test compound (Control sample) or containing test compounds B3 (10 mM), SAMe (500 μM) or B3 (10 mM)+SAMe (500 uM). Cell treatment (25m1 media with or without test compounds as above) continued daily for 2 additional days (Days 2 and 3). On Day 4, cells were subjected to UV treatment by replacing media with PBS, exposing cells to UV light (4 J/cm^2 of UVA+UVB) for 14 min and feeding cells with media with or without corresponding test compounds as defined above. UV treatments continued daily for 3 additional days (Days 5, 6 and 7). Image acquisition and analysis on all wells to assess mitochondrial fragmentation was conducted on Day 1, 3, 5 and 8.
For two-photon excited fluorescence (TPEF) imaging, cell cultures were placed in microscope-compatible micro-incubator system, which maintained 37° C. within a humidified environment throughout the imaging session. HEPES buffering agent (Sigma) was added to cell cultures before imaging, which maintained the pH of cell cultures throughout the imaging session. Images were obtained using a Leica TCS SP8 confocal microscope equipped with a tunable (680-1300 nm) titanium-sapphire laser (InSight Deep See; Spectra Physics; Mountain View, Calif.). Images (1024×1024 pixels; 386×386 μm) were acquired using water-immersion 25x objective (NA 0.95; 2.4 mm working distance), with simultaneous collection by two non-descanned photomultiplier tube (PMT) detectors using a filter cube containing filters from Chroma (Bellows Falls, VT), including a 700 nm short pass filter (ET700SP-2P) and a 495 nm dichroic mirror (495DCXR). To isolate NADH fluorescence, a 460(±20) nm emission filter (Chroma, ET460/40M-2P), corresponding to the NADH emission peak, was placed before one of the non-descanned detectors. NADH fluorescence images were acquired from this 460 nm channel using 755 nm excitation. FAD fluorescence was isolated using a 525(±25) nm emission filter (Chroma, ET525/50M-2P) for the other non-descanned detector and 860 nm excitation. The two-photon action cross section of NADH decreases by several orders of magnitude between 755 nm and 860 nm excitation, enabling an efficient isolation of FAD at longer wavelengths. The fluorescence lifetime images (512×512 pixels; 386×386 μm) corresponding to NADH were acquired under the same excitation and emission settings, using SymPho software. PMT gain was adjusted for each image to maximize contrast while preventing a saturated pixel intensity value. The PMT gain and laser power were recorded for each image and used to normalize fluorescence intensity.
To assess mitochondrial fragmentation, a previously-established Fourier transform technique was used to obtain power spectral density (PSD) curves from each image. […]

SMILES	Effect on mitochondrial fragmentation in Non UV-exposed keratinocytes (in words)	Mitochondrial Fragmentation, (+) UV (4 days)	Mitochondrial Fragmentation, (−) UV (3 days)	Effect on UV-induced mitochondrial fragmentation (in words)
NC(=O)c1cccnc1 [B3, Nicotinamide]	does not significantly reduce mitochondrial fragmentation	1.34 ^d	1.18	effective at reducing this UV-induced effect down to control levels
C[S+](CC[C@H](N)C(=O)[O-])C[C@H]1O[C@@H](n2cnc3c(N)ncnc32)[C@H](O)[C@@H]1O (stereo partly drawn) [SAMe, S-adenosyl-L-methionine]	does not significantly reduce mitochondrial fragmentation	1.58 ^c,e	1.30	increases mitochondrial fragmentation beyond UV-exposed levels

From US20220370326A1, “TOPICAL COMPOSITIONS AND METHODS OF USING SAME AGAINST MITOCHONDRIAL FRAGMENTATION” (Conopco, Inc., d/b/a UNILEVER, priority 2019, published 2022)
